As usually defined, the melting point is the temperature, or range, at which the solid turns liquid.

Structures are written as SMILES.

`CC(C)CCC1=CCC[C@@]2(C)CC[C@@H]3C[C@]12OC3(C)C` [Example 5, (1R,6S,9R)6,10,10-Trimethyl-2-isopentyl-11-oxatricyclo[7.2.1.0^1,6]dodec-2-ene]: the melting point lay within 38 to 39 °C. In turn, `CC1(C)O[C@]23C[C@H]1CC[C@]2(C)CCC=C3Cc1ccccc1` [Example 7, (1R,6S,9R)6,10,10-Trimethyl-2-benzyl-11-oxatricyclo[7.2.1.0^1,6]dodec-2-ene] yielded a melting point of 49 to 50 °C.

For the compound `CC1(C)O[C@]23C[C@H]1CC[C@]2(C)CCC=C3Cc1ccc(F)cc1` [Example 8, (1R,6S,9R)6,10,10-Trimethyl-2-(4-flurobenzyl)-11-oxatricyclo[7.2.1.0^1,6]dodec-2-ene], the melting point was 131 to 133 °C. In turn, `CC1(C)O[C@]23C[C@H]1CC[C@]2(C)CCC=C3Cc1ccc(Cl)cc1` [Example 10, (1R,6S,9R)6,10,10-Trimethyl-2-(4-chlorobenzyl)-11-oxatricyclo[7.2.1.0^1,6]dodec-2-ene] displayed a melting point of 87 to 88 °C. `CC1(C)O[C@]23C[C@H]1CC[C@]2(C)CCC=C3CCO` [Example 11, (1R,6S,9R)6,10,10-Trimethyl-2-(2-hydroxyethyl)-11-oxatricyclo[7.2.1.0^1,6]dodec-2-ene] had a melting point of 34 to 36 °C. In the case of `CCCC[C@]1(O)CCC[C@@]2(C)CC[C@@H]3C[C@@]21OC3(C)C` [Example 16, (1R,2S,6S,9R)6,10,10-Trimethyl-2-butyl-2-hydroxy-11-oxatricyclo[7.2.1.0^1,6]dodecane], the melting point fell in the range of 70 to 72 °C. Turning to `CCCC[C@@]1(O)CCC[C@@]2(C)CC[C@@H]3C[C@@]21OC3(C)C` [Example 21, (1R,2R,6S,9R)6,10,10-Trimethyl-2-butyl-2-hydroxy-11-oxatricyclo[7.2.1.0^1,6]dodecane], the melting point was in the range of 90 to 92 °C. For the compound `CCCC[C@H]1[C@@H](O)CC[C@@]2(C)CC[C@@H]3C[C@]12OC3(C)C` [Example 22, (1S,2S,3S,6R,9R)6,10,10-Trimethyl-2-butyl-3-hydroxy-11-oxatricyclo[7.2.1.0^1,6]dodecane], the melting point lay in the range of 47 to 48 °C. To `CCCC[C@H]1C(=O)CC[C@@]2(C)CC[C@@H]3C[C@]12OC3(C)C` [Example 23, (1S,2R,6R,9R)6,10,10-Trimethyl-2-butyl-11-oxatricyclo[7.2.1.0^1,6]dodecan-3-one] belongs 64 to 66 °C; to `CC1(C)O[C@]23C[C@H]1CC[C@]2(C)CC[C@](C)(O)C3` [Example 24, (1S,3S,6R,9R)3,6,10,10-Tetramethyl-3-hydoxy-11-oxatricyclo[7.2.1.0^1,6]dodecane], 68 to 70 °C. As for `CC(=O)CCC1=CCC[C@@]2(C)CC[C@@H]3C[C@]12OC3(C)C` [Example 29, (1R,6S,9R)6,10,10-Trimethyl-2-(3-oxobutyl)-11-oxatricyclo[7.2.1.0^1,6]dodec-2-ene], the melting point is 59 to 62 °C. `CC1=C[C@@]23C[C@@H](CC[C@]2(C)CC1)C(C)(C)O3` [Example 32, (1S,6R,9R)3,6,10,10-Tetramethyl-11-oxatricyclo[7.2.1.0^1,6]dodec-2-ene] displayed a melting point of 38 to 39 °C.

Source of the values: patent publication US6486201B1, “Agarofuan derivatives, their preparation, pharmaceutical composition containing them and their use as medicine” (Institute of Materia Medica, Chinese Academy of Medical …, priority 1998, dated 2002).
